Results as given in the supplement of paper PMC10307832.

Legend:
Experiment in all cases: relative viability (nuclei count vs DMSO), 5 days (fraction); higher = more cells survive
[1] = compound: COc1cc(Nc2c(C#N)cnc3cc(OCCCN4CCN(C)CC4)c(OC)cc23)c(Cl)cc1Cl [Bosutinib]
How it was run: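 Only plates meeting two conditions passed: control CV below 25% and at least one doubling. Lung cancer cell lines, kept overnight at 37 °C in 1536-well plates, were pinned with five library-drug doses (not always all listed) √10 apart on vehicle-anchored plates and grown 5 days without medium change. A one-step fix, permeabilisation and Hoechst stain preceded 4× imaging and MetaXpress nuclear counting. Viability equals treated-well nuclei divided by vehicle-well nuclei, as the median over plates.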

[2] = compound: COc1cc(Nc2c(C#N)cnc3cc(OCCCN4CCN(C)CC4)c(OC)cc23)c(Cl)cc1Cl [Bosutinib] + Nc1nc2[nH]cc(CCc3ccc(C(=O)N[C@@H](CCC(=O)O)C(=O)O)cc3)c2c(=O)[nH]1 [Pemetrexed] (partner 0.2 µM)
How it was run: (§1)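 Relative viability equals treated-well nuclei counts divided by vehicle-well nuclei counts. Counts came from 4× images of lung cancer cell lines grown in 1536-well plates for 5 days after pin-tool dosing on the day after seeding. Dosing used one drug alone or a fixed anchor-drug dose plus five library-drug doses (not always all listed) in √10 steps, and values are medians of duplicate plates.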

[3] = compound: COc1cc(Nc2c(C#N)cnc3cc(OCCCN4CCN(C)CC4)c(OC)cc23)c(Cl)cc1Cl [Bosutinib] + COc1cccc2cc(-c3nc([C@H]4CC[C@H](C(=O)O)CC4)n4ncnc(N)c34)[nH]c12 [OSI-027] (partner 0.5 µM)
How it was run: as §1

[4] = compound: COc1cc(Nc2c(C#N)cnc3cc(OCCCN4CCN(C)CC4)c(OC)cc23)c(Cl)cc1Cl [Bosutinib] + O=C(CCCCCCC(=O)Nc1ccccc1)NO [Vorinostat] (partner 1 µM)
How it was run: as §1

[5] = compound: COc1cc(Nc2c(C#N)cnc3cc(OCCCN4CCN(C)CC4)c(OC)cc23)c(Cl)cc1Cl [Bosutinib] + NC(=O)Nc1cc(-c2cccc(F)c2)sc1C(=O)N[C@H]1CCCNC1 [AZD7762] (partner 0.2 µM)
How it was run: as §1

[6] = compound: COc1cc(Nc2c(C#N)cnc3cc(OCCCN4CCN(C)CC4)c(OC)cc23)c(Cl)cc1Cl [Bosutinib] + CC(=O)Nc1cccc(-n2c(=O)n(C3CC3)c(=O)c3c(Nc4ccc(I)cc4F)n(C)c(=O)c(C)c32)c1 [Trametinib] (partner 0.02 µM)
How it was run: as §1

[7] = compound: COc1cc(Nc2c(C#N)cnc3cc(OCCCN4CCN(C)CC4)c(OC)cc23)c(Cl)cc1Cl [Bosutinib] + Nc1ncn([C@H]2C[C@H](O)[C@@H](CO)O2)c(=O)n1 [Decitabine] (partner 2 µM)
How it was run: as §1

[8] = compound: COc1cc(Nc2c(C#N)cnc3cc(OCCCN4CCN(C)CC4)c(OC)cc23)c(Cl)cc1Cl [Bosutinib] + CC(=O)c1c(C)c2cnc(Nc3ccc(N4CCNCC4)cn3)nc2n(C2CCCC2)c1=O [Palbociclib] (partner 0.5 µM)
How it was run: as §1

[9] = compound: COc1cc(Nc2c(C#N)cnc3cc(OCCCN4CCN(C)CC4)c(OC)cc23)c(Cl)cc1Cl [Bosutinib] + Cc1cc(Nc2cc(N3CCN(C)CC3)nc(Sc3ccc(NC(=O)C4CC4)cc3)n2)n[nH]1 [Tozasertib] (partner 0.1 µM)
How it was run: as §1

[10] = compound: COc1cc(Nc2c(C#N)cnc3cc(OCCCN4CCN(C)CC4)c(OC)cc23)c(Cl)cc1Cl [Bosutinib] + O=C(c1cc(Cc2n[nH]c(=O)c3ccccc23)ccc1F)N1CCN(C(=O)C2CC2)CC1 [Olaparib] (partner 8 µM)
How it was run: as §1

[11] = compound: COc1cc(Nc2c(C#N)cnc3cc(OCCCN4CCN(C)CC4)c(OC)cc23)c(Cl)cc1Cl [Bosutinib] + Cc1nc(Nc2ncc(C(=O)Nc3c(C)cccc3Cl)s2)cc(N2CCN(CCO)CC2)n1 [Dasatinib] (partner 0.075 µM)
How it was run: as §1

[12] = compound: COc1cc(Nc2c(C#N)cnc3cc(OCCCN4CCN(C)CC4)c(OC)cc23)c(Cl)cc1Cl [Bosutinib] + N=C(N)NC(=N)NCCc1ccccc1 [Phenformin] (partner 250 µM)
How it was run: as §1

[13] = compound: COc1cc(Nc2c(C#N)cnc3cc(OCCCN4CCN(C)CC4)c(OC)cc23)c(Cl)cc1Cl [Bosutinib] + COc1cc2c(Oc3ccc(NC(=O)C4(C(=O)Nc5ccc(F)cc5)CC4)cc3F)ccnc2cc1OCCCN1CCOCC1 [Foretinib] (partner 0.25 µM)
How it was run: as §1

[14] = compound: COc1cc(Nc2c(C#N)cnc3cc(OCCCN4CCN(C)CC4)c(OC)cc23)c(Cl)cc1Cl [Bosutinib] + CCNC(=O)c1noc(-c2cc(C(C)C)c(O)cc2O)c1-c1ccc(CN2CCOCC2)cc1 [Luminespib] (partner 0.01 µM)
How it was run: as §1

## NCI-H1648
[1]; 0.01 µM
  relative viability: 1.15
[1]; 0.03162 µM
  relative viability: 0.851
[1]; 0.1 µM
  relative viability: 0.997
[1]; 1 µM
  relative viability: 0.931
[2]; first compound 0.01 µM
  relative viability: 0.728
[2]; first compound 0.03162 µM
  relative viability: 0.824
[2]; first compound 0.1 µM
  relative viability: 0.744
[2]; first compound 1 µM
  relative viability: 0.813
[3]; first compound 0.01 µM
  relative viability: 0.286
[3]; first compound 0.03162 µM
  relative viability: 0.251
[3]; first compound 0.1 µM
  relative viability: 0.261
[3]; first compound 1 µM
  relative viability: 0.245
[4]; first compound 0.01 µM
  relative viability: 0.389
[4]; first compound 0.03162 µM
  relative viability: 0.471
[4]; first compound 0.1 µM
  relative viability: 0.541
[4]; first compound 1 µM
  relative viability: 0.511
[5]; first compound 0.01 µM
  relative viability: 0.659
[5]; first compound 0.03162 µM
  relative viability: 0.639
[5]; first compound 0.1 µM
  relative viability: 0.838
[5]; first compound 1 µM
  relative viability: 0.61
[6]; first compound 0.01 µM
  relative viability: 0.548
[6]; first compound 0.03162 µM
  relative viability: 0.501
[6]; first compound 0.1 µM
  relative viability: 0.505
[6]; first compound 1 µM
  relative viability: 0.421
[7]; first compound 0.01 µM
  relative viability: 0.471
[7]; first compound 0.03162 µM
  relative viability: 0.622
[7]; first compound 0.1 µM
  relative viability: 0.662
[7]; first compound 1 µM
  relative viability: 0.675
[8]; first compound 0.01 µM
  relative viability: 0.297
[8]; first compound 0.03162 µM
  relative viability: 0.278
[8]; first compound 0.1 µM
  relative viability: 0.26
[8]; first compound 1 µM
  relative viability: 0.341
[9]; first compound 0.01 µM
  relative viability: 0.594
[9]; first compound 0.03162 µM
  relative viability: 0.447
[9]; first compound 0.1 µM
  relative viability: 0.396
[9]; first compound 1 µM
  relative viability: 0.462
[10]; first compound 0.01 µM
  relative viability: 0.953
[10]; first compound 0.03162 µM
  relative viability: 0.703
[10]; first compound 0.1 µM
  relative viability: 1.01
[10]; first compound 1 µM
  relative viability: 0.77

## NCI-H2342
[1]; 0.01 µM
  relative viability: 0.961
[1]; 0.03162 µM
  relative viability: 0.99
[1]; 0.1 µM
  relative viability: 0.926
[1]; 1 µM
  relative viability: 1.21
[11]; first compound 0.01 µM
  relative viability: 0.289
[11]; first compound 0.03162 µM
  relative viability: 0.305
[11]; first compound 0.1 µM
  relative viability: 0.317
[11]; first compound 1 µM
  relative viability: 0.344
[2]; first compound 0.01 µM
  relative viability: 0.783
[2]; first compound 0.03162 µM
  relative viability: 0.799
[2]; first compound 0.1 µM
  relative viability: 0.813
[2]; first compound 1 µM
  relative viability: 0.841
[3]; first compound 0.01 µM
  relative viability: 0.634
[3]; first compound 0.03162 µM
  relative viability: 0.669
[3]; first compound 0.1 µM
  relative viability: 0.702
[3]; first compound 1 µM
  relative viability: 0.718
[4]; first compound 0.01 µM
  relative viability: 0.779
[4]; first compound 0.03162 µM
  relative viability: 0.787
[4]; first compound 0.1 µM
  relative viability: 0.859
[4]; first compound 1 µM
  relative viability: 0.828
[12]; first compound 0.01 µM
  relative viability: 0.565
[12]; first compound 0.03162 µM
  relative viability: 0.68
[12]; first compound 0.1 µM
  relative viability: 0.56
[12]; first compound 1 µM
  relative viability: 0.643
[5]; first compound 0.01 µM
  relative viability: 0.445
[5]; first compound 0.03162 µM
  relative viability: 0.553
[5]; first compound 0.1 µM
  relative viability: 0.459
[5]; first compound 1 µM
  relative viability: 0.55
[6]; first compound 0.01 µM
  relative viability: 0.706
[6]; first compound 0.03162 µM
  relative viability: 0.703
[6]; first compound 0.1 µM
  relative viability: 0.856
[6]; first compound 1 µM
  relative viability: 1.1
[13]; first compound 0.01 µM
  relative viability: 0.903
[13]; first compound 0.03162 µM
  relative viability: 0.994
[13]; first compound 0.1 µM
  relative viability: 0.999
[13]; first compound 1 µM
  relative viability: 1.05
[7]; first compound 0.01 µM
  relative viability: 0.691
[7]; first compound 0.03162 µM
  relative viability: 0.744
[7]; first compound 0.1 µM
  relative viability: 0.726
[7]; first compound 1 µM
  relative viability: 0.855
[8]; first compound 0.01 µM
  relative viability: 0.539
[8]; first compound 0.03162 µM
  relative viability: 0.508
[8]; first compound 0.1 µM
  relative viability: 0.545
[8]; first compound 1 µM
  relative viability: 0.579
[9]; first compound 0.01 µM
  relative viability: 0.51
[9]; first compound 0.03162 µM
  relative viability: 0.449
[9]; first compound 0.1 µM
  relative viability: 0.526
[9]; first compound 1 µM
  relative viability: 0.517
[10]; first compound 0.01 µM
  relative viability: 0.419
[10]; first compound 0.03162 µM
  relative viability: 0.379
[10]; first compound 0.1 µM
  relative viability: 0.464
[10]; first compound 1 µM
  relative viability: 0.432
[14]; first compound 0.01 µM
  relative viability: 0.587
[14]; first compound 0.03162 µM
  relative viability: 0.714
[14]; first compound 0.1 µM
  relative viability: 0.694
[14]; first compound 1 µM
  relative viability: 0.666

## NCI-H522
[1]; 0.01 µM
  relative viability: 0.935
[1]; 0.03162 µM
  relative viability: 1.03
[1]; 0.1 µM
  relative viability: 1.05
[1]; 1 µM
  relative viability: 0.895
[11]; first compound 0.01 µM
  relative viability: 0.89
[11]; first compound 0.03162 µM
  relative viability: 0.691
[11]; first compound 0.1 µM
  relative viability: 0.794
[11]; first compound 1 µM
  relative viability: 0.979
[2]; first compound 0.01 µM
  relative viability: 0.982
[2]; first compound 0.03162 µM
  relative viability: 0.985
[2]; first compound 0.1 µM
  relative viability: 0.86
[2]; first compound 1 µM
  relative viability: 0.863
[3]; first compound 0.01 µM
  relative viability: 0.734
[3]; first compound 0.03162 µM
  relative viability: 0.641
[3]; first compound 0.1 µM
  relative viability: 0.682
[3]; first compound 1 µM
  relative viability: 0.69
[4]; first compound 0.01 µM
  relative viability: 0.873
[4]; first compound 0.03162 µM
  relative viability: 0.88
[4]; first compound 0.1 µM
  relative viability: 0.892
[4]; first compound 1 µM
  relative viability: 0.783
[12]; first compound 0.01 µM
  relative viability: 0.657
[12]; first compound 0.03162 µM
  relative viability: 0.623
[12]; first compound 0.1 µM
  relative viability: 0.63
[12]; first compound 1 µM
  relative viability: 0.613
[5]; first compound 0.01 µM
  relative viability: 0.794
[5]; first compound 0.03162 µM
  relative viability: 0.714
[5]; first compound 0.1 µM
  relative viability: 0.698
[5]; first compound 1 µM
  relative viability: 0.897
[6]; first compound 0.01 µM
  relative viability: 0.723
[6]; first compound 0.03162 µM
  relative viability: 0.711
[6]; first compound 0.1 µM
  relative viability: 0.689
[6]; first compound 1 µM
  relative viability: 0.723
[7]; first compound 0.01 µM
  relative viability: 0.572
[7]; first compound 0.03162 µM
  relative viability: 0.671
[7]; first compound 0.1 µM
  relative viability: 0.698
[7]; first compound 1 µM
  relative viability: 0.658
[8]; first compound 0.01 µM
  relative viability: 1.07
[8]; first compound 0.03162 µM
  relative viability: 0.93
[8]; first compound 0.1 µM
  relative viability: 0.996
[8]; first compound 1 µM
  relative viability: 0.8
[9]; first compound 0.01 µM
  relative viability: 0.564
[9]; first compound 0.03162 µM
  relative viability: 0.504
[9]; first compound 0.1 µM
  relative viability: 0.604
[9]; first compound 1 µM
  relative viability: 0.485
[10]; first compound 0.01 µM
  relative viability: 0.616
[10]; first compound 0.03162 µM
  relative viability: 0.645
[10]; first compound 0.1 µM
  relative viability: 0.735
[10]; first compound 1 µM
  relative viability: 0.619
[14]; first compound 0.01 µM
  relative viability: 1.15
[14]; first compound 0.03162 µM
  relative viability: 1.16
[14]; first compound 0.1 µM
  relative viability: 1.26
[14]; first compound 1 µM
  relative viability: 1.01
